The results in this text go back to publication PMC3163380, “Design, Synthesis and Biological Evaluation of Novel Pyrimido[4,5-d]pyrimidine CDK2 Inhibitors as Anti-Tumor Agents” (Scientia Pharmaceutica, 2011).

One data set concerns K-562. Put plainly: NCI primary anti-cancer assay (SRB), K-562. It is filed as cell-based. The note with it: Homo sapiens, K562; 10^−5M; Leukemia K-562; read-out: Growth Inhibition %. On the procedure:
(§1) Evaluation of anti-cancer activities on pyrimido[4,5-d]pyrimidine derivatives were performed at the National Cancer Institute (NCI) USA. First the newly synthesized compounds have been evaluated in primary anti-cancer assay at 10^−5M concentration against 60 human tumor cell lines then the active compounds were tested at 5 different concentrations against the same 60 human tumor cell lines. The biological data for the newly synthesized compounds are compiled in table 2
(§2) The cytotoxic activity was measured in vitro for the newly synthesized compounds using the SulfoRhodamine-B stain (SRB) assay using the method of Skehan. Cells were plated in 96-multiwell microtiter plate (10^4 cells/well) for 24 h before treatment with the compound(s) to allow attachment of cell to the wall of the plate. Tested compounds were dissolved in DMSO and diluted with saline to the appropriate volume. Triplicate wells were prepared for each individual dose. Monolayer cells were incubated with the compound(s) for 48 h at 37 °C and in atmosphere of 5% CO2. After 48 h, cells were fixed, washed, and stained for 30 min with 0.4% (wt/vol) with SRB dissolved in 1% acetic acid. Unbound dye was removed by four washes with 1% acetic acid, and attached stain was recovered with Tris-EDTA buffer. Color intensity was measured in an ELISA reader. The relation between surviving fraction and drug concentration is plotted to get the survival curve for tumor cell line after the specified time.

In the next data set the test system is OVCAR-8. Briefly: NCI primary anti-cancer assay (SRB), OVCAR-8. In kind it is cell-based. The note with it: Homo sapiens; 10^−5M; Ovarian Cancer OVCAR-8; read-out: Growth Inhibition %. On the procedure: as §1, §2
The target of another data set is T1, CDK2/CyclinA (Homo sapiens, UniProt P24941).
T1 construct: hexa-histidine (N); made in house; host or cells: sf21 insect cells (baculovirus)
Put plainly: CDK2/cyclinA enzymatic activity inhibition assay (32P-ATP, histone H1). It is filed as biochemical. The note with it: mean of at least two independent experiments.

The target of the next data set is CDK4/CyclinD (Homo sapiens, UniProt P11802). Put plainly: CDK4/CyclinD inhibition assay. In kind it is biochemical. The note with it: mean of at least two independent experiments.
Another data set has as its system IGROV1. Put plainly: NCI primary anti-cancer assay (SRB), IGROV1. In kind it is cell-based. The note with it: Homo sapiens, IGROV-1; 10^−5M; Ovarian Cancer IGROV1; read-out: Growth Inhibition %. As to the method:
as §1, §2

In the next data set the test system is BT-549. Briefly: NCI primary anti-cancer assay (SRB), BT-549. It is filed as cell-based. The note with it: Homo sapiens; 10^−5M; Breast Cancer BT-549; read-out: Growth Inhibition %. As to the method: as §1
as §2, with “The relation between surviving fraction and drug concentration is plotted to get the survival curve for tumor cell line after the specified time.” left out

Data set [1] deals with T2, human EGFR tyrosine kinase domain (Homo sapiens, UniProt P00533).
T2 construct: C-terminal human EGFR tyrosine kinase domain
Briefly: EGFR tyrosine kinase inhibition assay. It is filed as biochemical. The note with it: mean of at least two independent experiments.

In a further data set the test system is RPMI-8226. Briefly: NCI primary anti-cancer assay (SRB), RPMI-8226. In kind it is cell-based. The note with it: Homo sapiens; 10^−5M; Leukemia RPMI-8226; read-out: Growth Inhibition %. On the procedure: as §1, §2
Another data set relates to UO-31. Briefly: NCI primary anti-cancer assay (SRB), UO-31. It is filed as cell-based. The note with it: Homo sapiens; 10^−5M; Renal Cancer UO-31; read-out: Growth Inhibition %. As to the method: as §1, §2
The subject of another data set is EKVX. Put plainly: NCI primary anti-cancer assay (SRB), EKVX. The note with it: Homo sapiens; 10^−5M; Non-Small Cell Lung Cancer EKVX; read-out: Growth Inhibition %. In kind it is cell-based. As to the method: as §1
as §2, with “The relation between surviving fraction and drug concentration is plotted to get the survival curve for tumor cell line after the specified time.” left out

The subject of the next data set is A549/ATCC. Briefly: NCI primary anti-cancer assay (SRB), A549/ATCC. In kind it is cell-based. The note with it: Homo sapiens; 10^−5M; Non-Small Cell Lung Cancer A549/ATCC; read-out: Growth Inhibition %. On the procedure:
as §1, §2

In data set [2] the test system is 60 human tumor cell lines. Put plainly: NCI primary anti-cancer assay, summary over tumor cell lines. In kind it is cell-based. The note with it: 10^−5M, Non-small cell lung cancer, Ovarian cancer, Leukemia and Melanoma lines / different tumor cell lines, read-out: growth inhibitions (range over cell lines). As to the method: as §1, §2
Another data set concerns MOLT-4. Put plainly: NCI primary anti-cancer assay (SRB), MOLT-4. In kind it is cell-based. The note with it: Homo sapiens; 10^−5M; Leukemia MOLT-4; read-out: Growth Inhibition %. As to the method:
as §1, §2

The test system of the next data set is UACC-257. Put plainly: NCI primary anti-cancer assay (SRB), UACC-257. In kind it is cell-based. The note with it: Homo sapiens; 10^−5M; Melanoma UACC-257; read-out: Growth Inhibition %. As to the method: as §1, §2
In another data set the test system is SF-539. Briefly: NCI primary anti-cancer assay (SRB), SF-539. It is filed as cell-based. The note with it: Homo sapiens; 10^−5M; CNS Cancer SF-539; read-out: Growth Inhibition %. On the procedure: as §1, §2
In a further data set the test system is HS 578T. Briefly: NCI primary anti-cancer assay (SRB), HS 578T. In kind it is cell-based. The note with it: Homo sapiens; 10^−5M; Breast Cancer HS 578T; read-out: Growth Inhibition %. As to the method: as §1, §2
The subject of a further data set is MDA-MB-231/ATCC. Briefly: NCI primary anti-cancer assay (SRB), MDA-MB-231/ATCC. In kind it is cell-based. The note with it: Homo sapiens; 10^−5M; Breast Cancer MDA-MB-231/ATCC; read-out: Growth Inhibition %. On the procedure: as §1, §2
A further data set has as its system HOP-92. Briefly: NCI primary anti-cancer assay (SRB), HOP-92. It is filed as cell-based. The note with it: Homo sapiens; 10^−5M; Non-Small Cell Lung Cancer HOP-92; read-out: Growth Inhibition %. On the procedure:
as §1, §2

The next data set deals with MCF7. Put plainly: NCI primary anti-cancer assay (SRB), MCF7. In kind it is cell-based. The note with it: Homo sapiens; 10^−5M; Breast Cancer MCF7; read-out: Growth Inhibition %. On the procedure: as §1
as §2, with “The relation between surviving fraction and drug concentration is plotted to get the survival curve for tumor cell line after the specified time.” left out

Another data set deals with HL-60(TB). Briefly: NCI primary anti-cancer assay (SRB), HL-60(TB). It is filed as cell-based. The note with it: Homo sapiens; 10^−5M; Leukemia HL-60(TB); read-out: Growth Inhibition %. On the procedure: as §1, §2

Sequence of CDK4/CyclinD (P11802 whole entry, species assumed): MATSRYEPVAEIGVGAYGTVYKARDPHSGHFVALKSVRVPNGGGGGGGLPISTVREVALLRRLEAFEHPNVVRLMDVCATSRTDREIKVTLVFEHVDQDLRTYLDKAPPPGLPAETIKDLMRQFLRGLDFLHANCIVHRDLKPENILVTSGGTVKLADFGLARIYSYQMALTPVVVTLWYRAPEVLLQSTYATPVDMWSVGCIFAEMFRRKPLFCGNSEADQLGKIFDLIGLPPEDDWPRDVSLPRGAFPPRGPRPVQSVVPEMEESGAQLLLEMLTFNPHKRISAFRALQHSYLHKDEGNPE
Sequence of CDK4/CyclinD (P24385 whole entry partner, species assumed): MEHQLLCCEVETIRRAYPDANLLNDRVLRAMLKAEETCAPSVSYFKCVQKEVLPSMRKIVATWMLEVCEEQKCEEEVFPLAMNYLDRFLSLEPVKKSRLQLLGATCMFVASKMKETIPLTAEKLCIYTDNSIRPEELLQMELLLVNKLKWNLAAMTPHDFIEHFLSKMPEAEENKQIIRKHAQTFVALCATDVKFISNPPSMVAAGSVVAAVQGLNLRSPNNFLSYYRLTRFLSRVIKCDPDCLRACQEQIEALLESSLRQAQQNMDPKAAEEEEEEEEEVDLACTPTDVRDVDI
T2 sequence (P00533 712-979 limits assumed): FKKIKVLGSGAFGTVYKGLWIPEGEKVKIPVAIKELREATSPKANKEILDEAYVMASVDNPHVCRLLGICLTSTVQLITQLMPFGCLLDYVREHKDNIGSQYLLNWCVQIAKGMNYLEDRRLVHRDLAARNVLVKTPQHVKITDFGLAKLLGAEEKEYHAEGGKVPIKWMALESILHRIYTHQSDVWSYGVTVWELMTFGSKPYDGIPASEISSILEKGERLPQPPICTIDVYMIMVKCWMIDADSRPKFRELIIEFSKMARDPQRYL

`Cc1cc(C)nc(NS(=O)(=O)c2ccc(Nc3nc(-c4ccc(O)cc4O)c4c(=O)[nH]c(SCc5ccccc5)nc4n3)cc2)n1` [Compound 6b, 4-{[7-(Benzylsulfanyl)-4-(2,4-dihydroxyphenyl)-5-oxo-5,6-dihydropyrimido[4,5-d]pyrimidin-2-yl]amino}-N-(4,6-dimethylpyrimidin-2-yl)benzenesulfonamide] displayed a melting point of more than 300 °C. In addition, the inhibition at 10 µM in the data set with K-562 came to 20.1%. For the same compound, in the data set on OVCAR-8, the inhibition at 10 µM is 38.7%. This compound gave a half-inhibitory concentration (IC50) against CDK2/CyclinA of 2.8 µM. The compound also had an IC50 on CDK4/CyclinD of 2.14 µM. Also, the inhibition at 10 µM in the data set with IGROV1 came out at 30.7%. For the same compound, the inhibition at 10 µM in the data set with BT-549 was determined as 29.1%. Further, half-maximal inhibition in data set [1] (IC50) was put at 5.5 µM.

`O=c1[nH]c(NCc2ccccc2)nc2nc(Nc3ccc(NC(=S)Nc4ccccc4)cc3)nc(-c3ccc(O)cc3O)c12` [Compound 7a, 1-(4-{[7-(Benzylamino)-4-(2,4-dihydroxyphenyl)-5-oxo-5,6-dihydropyrimido[4,5-d]pyrimidin-2-yl]amino}phenyl)-3-phenylthiourea] yielded a melting point of more than 300 °C. The inhibition at 10 µM with RPMI-8226 is 22.6%. In addition, the inhibition at 10 µM in the data set with UO-31 stood at 21.4%. In the data set with EKVX, the inhibition at 10 µM came to 36.8%. In addition, the inhibition at 10 µM in the data set on A549/ATCC came out at 58.4%. Also, the inhibition at 10 µM in [2] lay within 50 to 70%. Besides, it took 0.31 µM to reach half-maximal inhibition against CDK2/CyclinA (IC50). On CDK4/CyclinD, this compound registered a concentration for half-maximal inhibition (IC50) of 3.33 µM. Besides, the inhibition at 10 µM with IGROV1 is 29.7%. Also, the inhibition at 10 µM with MOLT-4 is 36.7%. Also, the inhibition at 10 µM in the data set with UACC-257 was determined as 60.3%. The IC50 in [1] is more than 10 µM.

Compound `Cc1nc(Nc2ccc(NC(=S)Nc3ccccc3)cc2)nc2nc(NCc3ccccc3)[nH]c(=O)c12` [Compound 7b, 1-(4-{[7-(Benzylamino)-4-methyl-5-oxo-5,6-dihydropyrimido[4,5-d]pyrimidin-2-yl]amino}-phenyl)-3-phenylthiourea] gave a melting point of more than 300 °C. Further, in the data set on K-562, the inhibition at 10 µM came to 53.7%. Also, in the data set with RPMI-8226, the inhibition at 10 µM came out at 50.2%. The inhibition at 10 µM with EKVX was 28.5%. In the data set on SF-539, the inhibition at 10 µM stood at 42%. In the data set with HS 578T, the inhibition at 10 µM was 33.6%. The inhibition at 10 µM in data set [2] fell in the range of 50 to 70%. In addition, the inhibition at 10 µM with MDA-MB-231/ATCC was determined as 31.5%. On CDK2/CyclinA, the IC50 is 0.86 µM. In addition, at CDK4/CyclinD, the IC50 is 4.85 µM. Further, the inhibition at 10 µM in the data set with HOP-92 turned out to be 20.8%. In addition, the inhibition at 10 µM in the data set on MCF7 was determined as 43.5%. The inhibition at 10 µM in the data set with HL-60(TB) came out at 24.5%. The inhibition at 10 µM in the data set with MOLT-4 worked out at 32.9%. The same compound yielded an IC50 in data set [1] of more than 10 µM.

Regarding `O=c1[nH]c(Nc2ccc(S(=O)(=O)O)cc2)nc2nc(Nc3ccc(NC(=S)Nc4ccccc4)cc3)nc(-c3ccc(O)cc3O)c12` [Compound 7g, 4-{[5-(2,4-Dihydroxyphenyl)-4-oxo-7-({4-[(phenylcarbamothioyl)amino]phenyl}amino)-3,4-dihydropyrimido[4,5-d]pyrimidin-2-yl]amino}benzenesulfonic acid], the melting point is more than 300 °C. Further, the inhibition at 10 µM in the data set on K-562 was found to be 20.1%. The compound further displayed an IC50 against CDK2/CyclinA of 6.5 µM. Further, at CDK4/CyclinD, the IC50 came out at 5.21 µM and the “IC50 CDK4/CyclinD” value is given as “very poor activity”. For the same compound, the inhibition at 10 µM with HOP-92 amounted to 29.1%. In addition, in the data set on MCF7, the inhibition at 10 µM amounted to 33.3%. In addition, in the data set on UACC-257, the inhibition at 10 µM amounted to 32.7%. The compound further registered an IC50 in data set [1] of 7.3 µM.

`Cc1nc(Nc2ccc(NC(=S)Nc3ccccc3)cc2)nc2nc(Nc3ccc(S(=O)(=O)O)cc3)[nH]c(=O)c12` [Compound 7h, 4-{[5-Methyl-4-oxo-7-({4-[(phenylcarbamothioyl)amino]phenyl}amino)-3,4-dihydropyrimido[4,5-d]pyrimidin-2-yl]amino}benzenesulfonic acid] gave a melting point of more than 300 °C. Also, the inhibition at 10 µM in the data set with RPMI-8226 amounted to 52.5%. In addition, in the data set on UO-31, the inhibition at 10 µM turned out to be 21.1%. Further, the inhibition at 10 µM with OVCAR-8 was 50.2%. Further, the inhibition at 10 µM in [2] was 50 to 70%. For the same compound, it took 6 µM to reach half-maximal inhibition against CDK2/CyclinA (IC50). Besides, at CDK4/CyclinD, the IC50 was more than 10 µM and the “IC50 CDK4/CyclinD” value is on record as “no activity”. Besides, the inhibition at 10 µM in the data set on HOP-92 was found to be 24.3%. Also, in the data set on HL-60(TB), the inhibition at 10 µM came out at 29%. The inhibition at 10 µM in the data set on IGROV1 is 28%. Moreover, in the data set with BT-549, the inhibition at 10 µM was 39%. For the same compound, in the data set on MOLT-4, the inhibition at 10 µM was determined as 20.8%. The IC50 in data set [1] is more than 10 µM.
